For this assay, the system named is MRL-lpr/lpr mice. Nature of the assay: Repeated intramuscular administration for 28 days in MRL mice (submandibular lymph node weight). The format is in vivo. As to the method:
The effect of the keratan sulfate oligosaccharide was examined on MRL mice which are autoimmune disease model mice.
The PBS solution of the purified keratan sulfate disaccharide (III) which was prepared in Example 1 described above at a dose of 1 mg/kg, 5 mg/kg, or 25 mg/kg weight (hereinafter referred to as the 1 mg/kg administered group, the 5 mg/kg administered group, and the 25 mg/kg administered group, respectively), and PBS as the control (hereinafter sometimes referred to as the control group) was intramuscularly injected, respectively, to the femoral region of MRL-lpr/lpr mice seven times a week for four weeks. After that, the mice were subjected to anatomization, and the weight of submandibular lymph nodes was determined to obtain the average weight. In each group, six mice were used. Further, in the figure, * represents that it has the significant difference with p<0.05 (wherein "p" means a level of significance by the Bonferroni multiple comparative test).

The structures appear in SMILES notation. Where a name gives a salt, the structure may show the parent alone.

On to `CC(=O)N[C@H]1C(O)O[C@H](COS(=O)(=O)O)[C@@H](O[C@@H]2O[C@H](COS(=O)(=O)O)[C@H](O)[C@H](O)[C@H]2O)[C@@H]1O` (stereo partly drawn) [keratan sulfate disaccharide (III), Gal(6S)β1-4GlcNAc(6S)], for which the “weight increase in submandibular lymph nodes (FIG. 14)” value (5 mg/kg i.m., p<0.05) is listed as “a significant suppressive effect on the weight increase was observed compared with the control group” and the “weight increase in submandibular lymph nodes (FIG. 14)” value (any dose (1, 5, 25 mg/kg i.m.)) is given as “a suppressive effect on the weight increase in submandibular lymph nodes was observed”.

For the origin of these results see patent publication US5939403A, “Keratan sulfate oligosaccharide fraction and pharmaceutical containing the same” (Seikagaku Corporation, priority 1994, dated 1999).
